Assay results as given in the RepoRT retention time repository (doi:10.1021/acs.analchem.2c02893).

Assay: RP, Thermo Scientific Acclaim RSLC 120 C18, 100 × 2.1 mm, 2.2 µm, 30 °C, 0.2 mL/min, estimated dead time 1.1 min; A: 90% water + 10% methanol + 0.01% formic acid + 5 mM ammonium formate, pH 3.61; B: methanol + 0.01% formic acid + 5 mM ammonium formate, pH 3.61; gradient (min/%B) 0/1 1/1 2/39 13/99.9 15/99.9 15.1/1 20.1/1
Conditions: stereoisomer not certain

Row | Structure (SMILES) | LC retention time
1 | O=C(c1cccc2ccccc12)c1cn(CCN2CCOCC2)c2ccccc12 [JWH-200] | 9.88 min
2 | CCCCCn1cc(C(=O)Cc2ccc(OC)cc2)c2ccccc21 [JWH-201] | 11.6 min
3 | CCCCCn1cc(C(=O)Cc2ccccc2Cl)c2ccccc21 [JWH-203] | 12.2 min
4 | CCCCCn1cc(C(=O)c2ccc(CC)c3ccccc23)c2ccccc21 [JWH-210] | 13.2 min
5 | CCCCCn1cc(C(=O)Cc2ccccc2OC)c2ccccc21 [JWH-250] | 11.8 min
6 | CCCCCn1cc(C(=O)Cc2ccccc2C)c2ccccc21 [JWH-251] | 12.2 min
7 | CCCCCn1cc(C(=O)Cc2cccc(OC)c2)c2ccccc21 [JWH-302] | 11.6 min
8 | CCCCCn1cc(C(=O)c2cccc3ccccc23)cc1-c1ccccc1F [JWH-307] | 12.8 min
9 | CCCCCn1cc(C(=O)c2cccc3ccccc23)cc1-c1cccc(F)c1 [JWH-368] | 13 min
10 | CCCCCn1cc(C(=O)c2cccc3ccccc23)cc1-c1ccccc1C [JWH-370] | 13.4 min
11 | CCCCCn1cc(C(=O)c2ccc(Br)c3ccccc23)c2ccccc21 [JWH-387] | 13.4 min
12 | CCCCCn1cc(C(=O)c2ccc(Cl)c3ccccc23)c2ccccc21 [JWH-398] | 13.3 min
13 | O=C(c1ccc(F)c2ccccc12)c1cn(CCCCCF)c2ccccc12 [JWH-412-5F. F2201] | 11.6 min
14 | CCCCCn1cc(C(=O)c2ccc(F)c3ccccc23)c2ccccc21 [JWH-412] | 12.8 min
15 | COC1=CC(=O)OC(C=Cc2ccccc2)C1 (stereo unspecified) [Kavain] | 8.32 min
16 | CNC1(c2ccccc2Cl)CCCCC1=O (stereo unspecified) [Ketamine] | 4.61 min
17 | CC1=CC(=O)N2CC(=O)N(C)c3ccc(Cl)cc3C2(c2ccccc2)O1 (stereo unspecified) [Ketazolam] | 9.79 min
18 | CCC(=O)C1(c2cccc(O)c2)CCN(C)CC1 [Ketobemidone] | 4.26 min
19 | CC(=O)N1CCN(c2ccc(OCC3COC(Cn4ccnc4)(c4ccc(Cl)cc4Cl)O3)cc2)CC1 (stereo unspecified) [Ketoconazole] | 9.4 min
20 | CC(C(=O)O)c1cccc(C(=O)c2ccccc2)c1 (stereo unspecified) [Ketoprofen] | 8.53 min
21 | O=C(c1ccccc1)c1ccc2n1CCC2C(=O)O (stereo unspecified) [Ketorolac] | 6.94 min
22 | CN1CCC(=C2c3ccccc3CC(=O)c3sccc32)CC1 [Ketotifen] | 5.54 min

Row | Structure (SMILES) | LC retention time
23 | CON=C(C(=O)OC)c1ccccc1COc1ccccc1C [Kresoxim-methyl] | 10.8 min
24 | N[C@@H](Cc1cc(I)c(Oc2cc(I)c(O)c(I)c2)c(I)c1)C(=O)O [L-Thyroxine] | 9.39 min
25 | CCN(CC)C(=O)C1C=C2c3cccc4[nH]cc(c34)CC2NC1 (stereo unspecified) [LSD-Nor] | 5.56 min
26 | CC(CCc1ccccc1)NCC(O)c1ccc(O)c(C(N)=O)c1 (stereo unspecified) [Labetalol] | 5.74 min
27 | CCOC(=O)C(C)OC(=O)c1cc(Oc2ccc(C(F)(F)F)cc2Cl)ccc1[N+](=O)[O-] (stereo unspecified) [Lactofen] | 12.2 min
28 | Cc1c(OCC(F)(F)F)ccnc1CS(=O)c1nc2ccccc2[nH]1 (stereo unspecified) [Lansoprazole] | 8.38 min
29 | COc1ccc(CC2c3cc(OC)c(OC)cc3CCN2C)cc1OC (stereo unspecified) [Laudanosine] | 4.71 min
30 | CCCCCCCCCCCC(=O)NCCC[N+](C)(C)CC(=O)O [Lauramidopropylbetaine] | 13.1 min
31 | CCCCCCCCCCCC(=O)NCC(C)O (stereo unspecified) [Lauric isopropanolamide] | 12.1 min
32 | CCCCCCCCCCCC(=O)N(CCO)CCO [Lauryl diethanolamide] | 11.7 min
33 | O=c1[nH]c2c(c(=O)n1C1CCCCC1)CCC2 [Lenacil] | 8.27 min
34 | COP(=S)(Oc1cc(Cl)c(Br)cc1Cl)c1ccccc1 (stereo unspecified) [Leptophos] | 13.8 min
35 | COC(=O)C1=C(C)NC(C)=C(C(=O)OC(C)(C)CN(C)CCC(c2ccccc2)c2ccccc2)C1c1cccc([N+](=O)[O-])c1 (stereo unspecified) [Lercanidipine] | 11.1 min
36 | CCCCOCCOCCSC#N [Lethane 384] | 8.12 min
37 | CN(C)c1ccc(C(c2ccccc2)c2ccc(N(C)C)cc2)cc1 [Leuco malachite green (LMG)] | 13.7 min
38 | c1ccc(C2CN3CCSC3=N2)cc1 (stereo unspecified) [Levamisol] | 3.68 min
39 | CC(C)(C)NCC(O)COc1cccc2c1CCCC2=O (stereo unspecified) [Levobunolol] | 4.84 min
40 | CC1CN(C2CCC(C#N)(c3ccc(F)cc3)CC2)CCC1(C(=O)O)c1ccccc1 (stereo unspecified) [Levocabastine] | 6.95 min
41 | CNCC(C)CN1c2ccccc2Sc2ccc(OC)cc21 (stereo unspecified) [Levomepromazine-Nor] | 8.33 min
42 | COc1ccc2c(c1)N(CC(C)CN(C)C)c1ccccc1S2 (stereo unspecified) [Levomepromazine] | 8.14 min
43 | CNC(C)CC1CCCCC1 (stereo unspecified) [Levopropylhexedrine] | 5.74 min
44 | CC[N+]([O-])(CC)CC(=O)Nc1c(C)cccc1C [Lidocaine-N-oxide] | 5.34 min

Row | Structure (SMILES) | LC retention time
45 | CC#CCn1c(N2CCCC(N)C2)nc2c1c(=O)n(Cc1nc(C)c3ccccc3n1)c(=O)n2C (stereo unspecified) [Linagliptin] | 6.01 min
46 | CCCC1CC(C(=O)NC(C(C)O)C2OC(SC)C(O)C(O)C2O)N(C)C1 (stereo unspecified) [Lincomycin] | 4.08 min
47 | CC(=O)NCC1CN(c2ccc(N3CCOCC3)c(F)c2)C(=O)O1 (stereo unspecified) [Linezolid] | 5.56 min
48 | CON(C)C(=O)Nc1ccc(Cl)c(Cl)c1 [Linuron] | 9.3 min
49 | NCCCCC(NC(CCc1ccccc1)C(=O)O)C(=O)N1CCCC1C(=O)O (stereo unspecified) [Lisinopril] | 3.98 min
50 | CCN(CC)C(=O)NC1C=C2c3cccc4[nH]cc(c34)CC2N(C)C1 (stereo unspecified) [Lisuride] | 5.92 min
51 | O=C(O)Cc1cn(-c2ccccc2)nc1-c1ccc(Cl)cc1 [Lonazolac] | 10.4 min
52 | CN1CCN(C=C2N=C3CN=C(c4ccccc4Cl)c4cc([N+](=O)[O-])ccc4N3C2=O)CC1 [Loprazolam] | 6.95 min
53 | CCOC(=O)N1CCC(=C2c3ccc(Cl)cc3CCc3cccnc32)CC1 [Loratadine] | 11.5 min
54 | O=C1Nc2ccc(Cl)cc2C(c2ccccc2Cl)=NC1O (stereo unspecified) [Lorazepam] | 8.36 min
55 | CN1C(=O)C(O)N=C(c2ccccc2Cl)c2cc(Cl)ccc21 (stereo unspecified) [Lormetazepam] | 8.61 min
56 | CCCCc1nc(Cl)c(CO)n1Cc1ccc(-c2ccccc2-c2nn[nH]n2)cc1 [Losartan] | 8.19 min
57 | CCC(C)C(=O)OC1CC(C)C=C2C=CC(C)C(CCC3CC(O)CC(=O)O3)C21 (stereo unspecified) [Lovastatin] | 12 min
58 | O=C(NC(=O)c1c(F)cccc1F)Nc1cc(Cl)c(OC(F)(F)C(F)C(F)(F)F)cc1Cl (stereo unspecified) [Lufenuron] | 12.5 min
59 | CC(C)C(O)(C(=O)OCC1=CC[N+]2([O-])CCC(O)C12)C(C)O (stereo unspecified) [Lycopsamine-N-oxide] | 3.94 min
60 | CC(C)C(O)(C(=O)OCC1=CCN2CCC(O)C12)C(C)O (stereo unspecified) [Lycopsamine] | 3.65 min
61 | CC(O)(C(N)=O)c1ccccc1 (stereo unspecified) [M-144] | 12.9 min
62 | COC(=O)C(NC(=O)c1nn(CC2CCCCC2)c2ccccc12)C(C)C (stereo unspecified) [MA-CHMINACA] | 12.4 min
63 | CC(C)(C)C(NC(=O)c1nn(CC2CCCCC2)c2ccccc12)C(N)=O (stereo unspecified) [MAB-CHMINACA] | 11.8 min
64 | CC(=O)OC1C=CC2C3Cc4ccc(O)c5c4C2(CCN3C)C1O5 (stereo unspecified) [MAM (6-O-Monoacetylmorphine)] | 3.75 min
65 | CCC(Cc1ccc2c(c1)OCO2)NC (stereo unspecified) [MBDB] | 4.66 min
66 | COC(=O)COc1ccc(Cl)cc1C [MCPA-methylester] | 9.85 min

Row | Structure (SMILES) | LC retention time
67 | Cc1cc(Cl)ccc1OCCCC(=O)O [MCPB] | 10.1 min
68 | NC1CCc2cc3c(cc2C1)OCO3 (stereo unspecified) [MDAT] | 4.32 min
69 | CC(C(=O)c1ccc2c(c1)OCO2)N(C)C (stereo unspecified) [MDDMA-bk] | 3.78 min
70 | CC(Cc1ccc2c(c1)OCO2)N(C)C (stereo unspecified) [MDDMA] | 4.08 min
71 | CCNC(C)Cc1ccc2c(c1)OCO2 (stereo unspecified) [MDEA] | 4.39 min
72 | CNC(C)Cc1ccc2c(c1)OCO2 (stereo unspecified) [MDMA] | 4.18 min
73 | COC(=O)C(NC(=O)c1nn(CC2CCCCC2)c2ccccc12)C(C)(C)C (stereo unspecified) [MDMB-CHMINACA (MDMB-CHMICA)] | 12.9 min
74 | COC(=O)C(NC(=O)c1nn(Cc2ccc(F)cc2)c2ccccc12)C(C)(C)C (stereo unspecified) [MDMB-FUBINACA] | 11.3 min
75 | CCC(C(=O)c1ccc2c(c1)OCO2)N1CCCC1 (stereo unspecified) [MDPBP] | 4.49 min
76 | CC(C(=O)c1ccc2c(c1)OCO2)N1CCCC1 (stereo unspecified) [MDPPP (3-4-Methylenedioxy-a-pyrrolidinopropiophenone)] | 4.13 min
77 | CCCC(C(=O)c1ccc2c(c1)OCO2)N1CCCC1 (stereo unspecified) [MDPV] | 5.18 min
78 | CCNC(C)C(=O)c1ccc(C)cc1 (stereo unspecified) [MEC (4-)] | 4.74 min
79 | CCCCCn1cc(C(=O)N2CCN(C)CC2)c2ccccc21 [MEPIRAPIM] | 7.75 min
80 | CCCCC(CC)CN1C(=O)C2C3C=CC(C3)C2C1=O (stereo unspecified) [MGK-264] | 11.6 min
81 | COC(=O)C(NC(=O)c1cn(CCCCCF)c2ccccc12)C(C)C (stereo unspecified) [MMB-2201] | 10 min
82 | CCCCCn1nc(C(=O)Nc2cccc3ccccc23)c2ccccc21 [MN-18] | 13 min
83 | COc1cccc2c(C(=O)NC3C4(C)CCC(C4)C3(C)C)cn(CCN3CCOCC3)c12 (stereo unspecified) [MN-25] | 11.7 min
84 | Cc1ccc(C2(c3ccccc3)NC(=O)NC2=O)cc1 (stereo unspecified) [MPPH (5-(p-Methylphenyl)-5-phenylhydantoin)] | 8.12 min
85 | CSc1ccc(CC(C)N)cc1 (stereo unspecified) [MTA (4-)] | 5.24 min
86 | CC(C)(C)NCC(O)c1cc(Cl)c(N)c(C(F)(F)F)c1 (stereo unspecified) [Mabuterol] | 5.28 min
